{"source": "patent US8338426B2", "about": "“Piperazinyl derivatives useful as modulators of the neuropeptide Y2 receptor” (Janssen Pharmaceutica NV, priority 2007, dated 2012)", "key": {"mouse Y2 receptor": {"biological_target": "T1, mouse Y2 receptor (Mus musculus, UniProt P97295)", "T1 construct": "membranes from rat or mouse hippocampus were prepared; from tissue; host or cells: mouse hippocampus membranes", "T1 sequence (P97295 1-381)": "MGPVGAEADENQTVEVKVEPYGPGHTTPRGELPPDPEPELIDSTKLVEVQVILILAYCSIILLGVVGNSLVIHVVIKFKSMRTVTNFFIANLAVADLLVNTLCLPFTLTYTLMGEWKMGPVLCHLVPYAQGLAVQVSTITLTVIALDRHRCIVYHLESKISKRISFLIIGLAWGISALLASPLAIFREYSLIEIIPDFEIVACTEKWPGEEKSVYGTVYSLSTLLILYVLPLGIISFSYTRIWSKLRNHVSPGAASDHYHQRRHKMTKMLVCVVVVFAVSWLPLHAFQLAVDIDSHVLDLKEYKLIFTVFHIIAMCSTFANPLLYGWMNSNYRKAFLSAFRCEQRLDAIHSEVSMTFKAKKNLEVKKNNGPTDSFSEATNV", "assay": "Neuropeptide Y2 radioligand binding assay, [125I]PYY, mouse hippocampus membranes", "conditions": "read-out: mY2 pKi (converted)", "experimental": "Radioligand binding assays for the human and rat/mouse Y2 receptor were performed as described in Bonaventure, P., D. Nepomuceno, C. Mazur, B. Lord, D. A. Rudolph, J. A. Jablonowski, N. I. Carruthers and T. W. Lovenberg, J Pharmacol Exp Ther. 2004, 308, 1130.\nKAN-Ts endogenously expressing Y2 receptors were used, for the rat and mouse Y2 receptor, membranes from rat or mouse hippocampus were prepared. Membranes were incubated with [^125I]PYY (80 pM) in the presence or absence of test compound for 1 h at rt. The reaction was stopped by filtration through GF/C filter plates pre-soaked in 0.3% polyethylenimine and subsequently washed with Tris-HCl, 50 mM, 5 mM EDTA buffer. Plates were dried for 1 h in a 55° C. oven, scintillation fluid was added and the radioactivity was counted in a Packard TopCount. Specific binding to the NPY receptor subtypes was determined by radioactivity that was bound in the presence of 1 μM NPY.\nApparent Ki values were calculated as K=IC50/(1+C/KD), where C is concentration of the radioligand and pKi=−log Ki. Data presented below are expressed as mean±S.E.M."}, "Y5 receptor subtype": {"biological_target": "T2, Y5 receptor subtype (Homo sapiens, UniProt Q15761)", "T2 construct": "expressed in transfected cells; host or cells: HEK-293 cells", "T2 sequence (Q15761 1-445)": "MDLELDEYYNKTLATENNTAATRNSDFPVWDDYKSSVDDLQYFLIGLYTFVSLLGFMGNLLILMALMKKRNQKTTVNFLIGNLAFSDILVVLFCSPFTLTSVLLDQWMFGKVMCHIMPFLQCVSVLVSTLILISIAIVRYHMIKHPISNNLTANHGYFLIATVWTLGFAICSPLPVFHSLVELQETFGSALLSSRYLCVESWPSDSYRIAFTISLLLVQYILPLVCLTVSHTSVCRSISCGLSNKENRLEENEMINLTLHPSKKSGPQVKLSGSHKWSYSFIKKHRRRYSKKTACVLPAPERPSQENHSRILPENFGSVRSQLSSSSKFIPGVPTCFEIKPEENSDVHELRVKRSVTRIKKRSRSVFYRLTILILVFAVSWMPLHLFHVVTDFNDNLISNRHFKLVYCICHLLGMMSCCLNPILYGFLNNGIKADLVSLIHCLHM", "assay": "[125I]PYY binding in HEK-293 cells expressing the Y5 receptor subtype", "conditions": "concentrations up to 10; HEK-293 cells expressing Y5", "experimental": "The selectivity of the compound of formula (A) was further evaluated in a large variety of ion-channels, transporters and receptor-binding assays including the Y1 receptor subtype. These assays were performed by CEREP (Celles L'Evescault, France; www.cere.com<http//www.cerea.com>). Selectivity vs the Y5 receptor subtype was evaluated as described in Bonaventure, P., D. Nepomuceno, C. Mazur, B. Lord, D. A. Rudolph, J. A. Jablonowski, N. I. Carruthers and T. W. Lovenberg, J Pharmacol Exp Ther. 2004, 308, 1130."}, "[1]": {"assay": "Pharmacokinetic study in rats", "format": "in vivo", "conditions": "rat, whole blood; for Vd: iv", "experimental": "The pharmacokinetic, blood-brain barrier penetration and ex vivo receptor occupancy studies were performed as described in Bonaventure, P., D. Nepomuceno, C. Mazur, B. Lord, D. A. Rudolph, J. A. Jablonowski, N. I. Carruthers and T. W. Lovenberg, J Pharmacol Exp Ther. 2004, 308, 1130.\nThe compound of formula (A) was formulated in 20% hydroxypropylbetacyclodextrine. Subcutaneous (SC), oral (PO) or intravenous (IV) dosing was followed by blood sampling via cardiac puncture over a time course. Blood samples consisted of 250 μl samples taken from the heart using a 23-gauge needle into 1.5 ml micro-centrifuge tubes. Brains were removed from the animals and bisected down the midsagittal plane. One hemisphere was frozen on dry ice for ex vivo receptor binding autoradiography and the other was homogenized for LC/MS-MS analysis.\nAll blood samples were deproteinized by 1:4 dilution of the sample with acetonitrile with vigorous mixing. These samples were incubated for 5 minutes, and then centrifuged at 14,000 rpm in a micro-centrifuge for 4 minutes. The supernatant was recovered into auto-sampler vials and diluted 1:1 with sterile water. Samples were analyzed by LC-MS/MS. A Vydac SP C18 2.1×50 mm analytical column was used for separation.\nOral, subcutaneous and intravenous pharmacokinetic parameters of the compound of formula (A) were determined in rats and are listed in Table 2 below."}}, "note": "Like-named read-outs stand apart in the source and are kept apart here."}
{"compound": "CCN(CC)C(=O)C(c1ccccc1)N1CCN(c2ccc(NC(=O)c3ccccc3-c3cccnc3)cc2F)CC1", "note": "(racemic) [Cmpd (A), N-{4-[4-(Diethylcarbamoyl-phenyl-methyl)-piperazin-1-yl]-3-fluoro-phenyl}-2-pyridin-3-yl-benzamide]", "values": [{"measurement": "Ki", "setting": "mouse Y2 receptor", "value": 4.47, "unit": "nM"}, {"measurement": "competition for specific [125I]PYY receptor binding sites, Y5", "setting": "Y5 receptor subtype", "value": "failed to compete for significant amounts"}, {"measurement": "Vd", "setting": "[1]; read-out: VSS", "value": 0.73, "unit": "L/kg"}, {"measurement": "Vd", "setting": "[1]; read-out: Vz", "value": 1.07, "unit": "L/kg"}, {"measurement": "AUC(0-inf)", "setting": "[1]; IV", "value": 0.708, "unit": "µM·h"}, {"measurement": "C0", "setting": "[1]; IV", "value": 5.33, "unit": "µM"}, {"measurement": "clearance", "setting": "[1]; IV", "value": 42.3, "unit": "mL/min/kg"}, {"measurement": "half-life", "setting": "[1]; IV", "value": 17.4, "unit": "min"}, {"measurement": "AUC(0-inf)", "setting": "[1]; PO 10 mg/kg", "value": 0.444, "unit": "µM·h"}, {"measurement": "Cmax", "setting": "[1]; PO 10 mg/kg", "value": 0.414, "unit": "µM"}, {"measurement": "Tmax", "setting": "[1]; PO 10 mg/kg", "value": 30, "unit": "min"}, {"measurement": "bioavailability", "setting": "[1]; PO 10 mg/kg", "value": 6, "unit": "%"}, {"measurement": "half-life", "setting": "[1]; PO 10 mg/kg", "value": 31.8, "unit": "min"}, {"measurement": "AUC(0-inf)", "setting": "[1]; SC 10 mg/kg", "value": 7.91, "unit": "µM·h"}, {"measurement": "Cmax", "setting": "[1]; SC 10 mg/kg", "value": 4.35, "unit": "µM"}, {"measurement": "Tmax", "setting": "[1]; SC 10 mg/kg", "value": 30, "unit": "min"}, {"measurement": "bioavailability", "setting": "[1]; SC 10 mg/kg", "value": "> 100", "unit": "%"}, {"measurement": "half-life", "setting": "[1]; SC 10 mg/kg", "value": 50, "unit": "min"}]}
